From US20150322038A1, “PYRAZINE DERIVATIVES AND THEIR USE IN THE TREATMENT OF NEUROLOGICAL DISORDERS” (NOVARTIS AG, priority 2009, published 2015)
Structures can show the parent of a compound that is named as a salt. Each block holds one molecule with its values, some of them ahead of it.

Legend:
[1] = system: cellular release of amyloid peptide 1-40; assay: Test 4: Inhibition of cellular release of amyloid peptide 1-40; assay type: cell-based; conditions: Cricetulus griseus, Chinese hamster ovary cells transfected with the gene for amyloid precursor protein, 24 hours with compound, amyloid peptide 1-40 in supernatant, read-out: Bace IC50
Description: Test 4: Inhibition of Cellular Release of Amyloid Peptide 1-40
Chinese hamster ovary cells are transfected with the gene for amyloid precursor protein. The cells are plated at a density of 8000 cells/well into 96-well microtiter plates and cultivated for 24 hours in DMEM cell culture medium containing 10% FCS. The test compound is added to the cells at various concentrations, and the cells are cultivated for 24 hours in the presence of the test compound. The supernatants are collected, and the concentration of amyloid peptide 1-40 is determined using state of the art immunoassay techniques, for example sandwich ELISA, homogenous time-resolved fluorescence (HTRF) immunoassay, or electro-chemiluminescence immunoassay. The potency of the compound is calculated from the percentage of inhibition of amyloid peptide release as a function of the test compound concentration.

human BACE-1 = human BACE-1 (Homo sapiens, UniProt P56817); assay: Test 1: Inhibition of human BACE-1; assay type: biochemical; conditions: recombinant BACE-1, pH 4.5, fluorescence-quenched APP-derived peptide substrate
Description: Test 1: Inhibition of Human BACE-1
IC50 values are calculated from percentage of inhibition of BACE-1 activity as a function of the test compound concentration.

Chain of human BACE-1 (P56817 46-457 limits assumed): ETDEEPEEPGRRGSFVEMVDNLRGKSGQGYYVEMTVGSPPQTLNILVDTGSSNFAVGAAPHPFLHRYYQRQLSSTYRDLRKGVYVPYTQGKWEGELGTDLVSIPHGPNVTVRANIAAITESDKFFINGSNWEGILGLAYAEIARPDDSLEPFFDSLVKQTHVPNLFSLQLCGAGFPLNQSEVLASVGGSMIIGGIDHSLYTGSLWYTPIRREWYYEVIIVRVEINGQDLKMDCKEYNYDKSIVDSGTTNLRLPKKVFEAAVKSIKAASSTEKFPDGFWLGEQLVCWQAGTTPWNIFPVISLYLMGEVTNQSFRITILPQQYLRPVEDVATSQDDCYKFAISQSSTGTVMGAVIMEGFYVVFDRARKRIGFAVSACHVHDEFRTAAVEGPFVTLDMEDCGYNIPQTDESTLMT

Structure (SMILES): Cc1cc(OC(F)F)cnc1C(=O)Nc1ccc(F)c([C@]2(C(F)F)CNCC(N)=N2)c1 (single isomer, unassigned) [Example 27]
- IC50 [1]: 12 nM
- IC50 (human BACE-1): 22 nM

Structure (SMILES): COc1cnc(C(=O)Nc2ccc(F)c([C@]3(C(F)F)CNCC(N)=N3)c2)c(N)n1 (single isomer, unassigned) [Example 28]
- IC50 [1]: 5.7 nM
- IC50 (human BACE-1): 20 nM

Structure (SMILES): COCCN1CC(C)(c2cc(NC(=O)c3ncc(Cl)cc3Cl)ccc2F)N=C(N)C1=O (centres unmarked) [Example 10, 3,5-Dichloro-pyridine-2-carboxylic acid {3-[6-amino-4-(2-methoxy-ethyl)-2-methyl-5-oxo-2,3,4,5-tetrahydro-pyrazin-2-yl]-4-fluoro-phenyl}-amide hydrochloride]
- IC50 [1]: 74 nM
- IC50 (human BACE-1): 34 nM

Structure (SMILES): COCC(=O)N1CC(N)=NC(c2cc(NC(=O)c3ncc(Br)cc3C)ccc2F)(C(F)F)C1 (centres unmarked) [Example 23, 5-Bromo-3-methyl-pyridine-2-carboxylic acid {3-[6-amino-2-difluoromethyl-4-(2-methoxy-acetyl)-2,3,4,5-tetrahydro-pyrazin-2-yl]-4-fluoro-phenyl}-amide]
- IC50 [1]: 34 nM
- IC50 (human BACE-1): 7 nM

Structure (SMILES): Cc1cc(Br)cnc1C(=O)Nc1ccc(F)c(C2(C(F)F)CN(C(=O)C3CC3)CC(N)=N2)c1 (centres unmarked) [Example 24, 5-Bromo-3-methyl-pyridine-2-carboxylic acid [3-(6-amino-4-cyclopropanecarbonyl-2-difluoromethyl-2,3,4,5-tetrahydro-pyrazin-2-yl)-4-fluoro-phenyl]-amide]
- IC50 [1]: 28 nM
- IC50 (human BACE-1): 11 nM

Structure (SMILES): N#Cc1ccc(C(=O)Nc2ccc(F)c(C3(C(F)F)CNCC(N)=N3)c2)nc1 (centres unmarked) [Example 17, 5-Cyano-pyridine-2-carboxylic acid [3-(6-amino-2-difluoromethyl-2,3,4,5-tetrahydro-pyrazin-2-yl)-4-fluoro-phenyl]-amide]
- IC50 [1]: 74 nM
- IC50 (human BACE-1): 28 nM

Structure (SMILES): CCN1CC(C)(c2cc(NC(=O)c3ncc(Cl)cc3Cl)ccc2F)N=C(N)C1=O (centres unmarked) [Example 8, 3,5-Dichloro-pyridine-2-carboxylic acid [3-(6-amino-4-ethyl-2-methyl-5-oxo-2,3,4,5-tetrahydro-pyrazin-2-yl)-4-fluoro-phenyl]-amide hydrochloride]
- IC50 [1]: 74 nM
- IC50 (human BACE-1): 21 nM

Structure (SMILES): Cc1cc(Br)cnc1C(=O)Nc1ccc(F)c(C2(C(F)F)CNCC(N)=N2)c1 (centres unmarked) [Example 25, 5-Bromo-3-methyl-pyridine-2-carboxylic acid [3-(6-amino-2-difluoromethyl-2,3,4,5-tetrahydro-pyrazin-2-yl)-4-fluoro-phenyl]-amide]
- IC50 [1]: 10 nM
- IC50 (human BACE-1): 28 nM

Structure (SMILES): CN1CC(C)(c2cc(NC(=O)c3ncc(Cl)cc3Cl)ccc2F)N=C(N)C1=O (centres unmarked) [Example 7, 3,5-Dichloro-pyridine-2-carboxylic acid [3-(6-amino-2,4-dimethyl-5-oxo-2,3,4,5-tetrahydro-pyrazin-2-yl)-4-fluoro-phenyl]-amide hydrochloride]
- IC50 [1]: 160 nM
- IC50 (human BACE-1): 68 nM

Structure (SMILES): N#Cc1ccc(C(=O)Nc2ccc(F)c(C3(C(F)F)CNC(=O)C(N)=N3)c2)nc1 (centres unmarked) [Example 18, 5-Cyano-pyridine-2-carboxylic acid [3-(6-amino-2-difluoromethyl-5-oxo-2,3,4,5-tetrahydro-pyrazin-2-yl)-4-fluoro-phenyl]-amide]
- IC50 [1]: 61 nM
- IC50 (human BACE-1): 21 nM

Structure (SMILES): NC1=NC(c2cc(NC(=O)c3ccc(Br)cn3)ccc2F)(C(F)F)CNC1 (centres unmarked) [Example 16, 5-Bromo-pyridine-2-carboxylic acid [3-(6-amino-2-difluoromethyl-2,3,4,5-tetrahydro-pyrazin-2-yl)-4-fluoro-phenyl]-amide]
- IC50 [1]: 6.7 nM
- IC50 (human BACE-1): 30 nM

Structure (SMILES): NC1=N[C@@](c2cc(NC(=O)c3ncc(=O)[nH]c3N)ccc2F)(C(F)F)CNC1 [Example 29, 3-Amino-5-oxo-4,5-dihydro-pyrazine-2-carboxylic acid [3-((R)-6-amino-2-difluoromethyl-2,3,4,5-tetrahydro-pyrazin-2-yl)-4-fluoro-phenyl]-amide]
- IC50 [1]: 860 nM
- IC50 (human BACE-1): 220 nM

Structure (SMILES): CC(=O)N1CC(N)=NC(c2cc(NC(=O)c3ncc(OC(F)F)cc3C)ccc2F)(C(F)F)C1 (centres unmarked) [Example 26, 5-Difluoromethoxy-3-methyl-pyridine-2-carboxylic acid [3-(4-acetyl-6-amino-2-difluoromethyl-2,3,4,5-tetrahydro-pyrazin-2-yl)-4-fluoro-phenyl]-amide]
- IC50 [1]: 44 nM
- IC50 (human BACE-1): 23 nM

Structure (SMILES): CC(=O)N1CC(N)=NC(c2cc(NC(=O)c3ncc(Br)cc3C)ccc2F)(C(F)F)C1 (centres unmarked) [Example 21, 5-Bromo-3-methyl-pyridine-2-carboxylic acid [3-(4-acetyl-6-amino-2-difluoromethyl-2,3,4,5-tetrahydro-pyrazin-2-yl)-4-fluoro-phenyl]-amide]
- IC50 [1]: 31 nM
- IC50 (human BACE-1): 9 nM

Structure (SMILES): Cc1cc(Br)cnc1C(=O)Nc1ccc(F)c(C2(C(F)F)CN(C(=O)OCC(Cl)Cl)CC(N)=N2)c1 (centres unmarked) [Example 22, 5-Amino-3-{5-[(5-bromo-3-methyl-pyridine-2-carbonyl)-amino]-2-fluoro-phenyl}-3-difluoromethyl-3,6-dihydro-2H-pyrazine-1-carboxylic acid 2,2-dichloro-ethyl ester]
- IC50 [1]: 21 nM
- IC50 (human BACE-1): 5 nM

Structure (SMILES): COC(=O)N1CC(N)=NC(c2cc(NC(=O)c3ccc(C#N)cn3)ccc2F)(C(F)F)C1 (centres unmarked) [Example 20, 5-Amino-3-{5-[(5-cyano-pyridine-2-carbonyl)-amino]-2-fluoro-phenyl}-3-difluoromethyl-3,6-dihydro-2H-pyrazine-1-carboxylic acid methyl ester]
- IC50 [1]: 57 nM
- IC50 (human BACE-1): 52 nM

Now from value to molecule:

- IC50 [1]: 190 nM
Structure (SMILES): CN1CC(C)(c2cc(NC(=O)c3ccc(Cl)cn3)ccc2F)N=C(N)C1=O (centres unmarked) [Example 5, 5-Chloro-pyridine-2-carboxylic acid [3-(6-amino-2,4-dimethyl-5-oxo-2,3,4,5-tetrahydro-pyrazin-2-yl)-4-fluoro-phenyl]-amide hydrochloride]

- IC50 [1]: 980 nM
- IC50 (human BACE-1): 1300 nM
Structure (SMILES): CCC1C(N)=NC(C)(c2cccc(NC(=O)c3ccc(Br)cn3)c2)C(=O)N1C (mixture of isomers) [Example 15, 5-Bromo-pyridine-2-carboxylic acid [3-(6-amino-5-ethyl-2,4-dimethyl-3-oxo-2,3,4,5-tetrahydro-pyrazin-2-yl)-phenyl]-amide]

- IC50 [1]: 280 nM
- IC50 (human BACE-1): 7 nM
Structure (SMILES): CC1(c2cc(NC(=O)c3ccc(Br)cn3)ccc2F)CN(c2cccnc2)C(=O)C(N)=N1 (centres unmarked) [Example 13, 5-Bromo-pyridine-2-carboxylic acid [3-(6-amino-2-methyl-5-oxo-4-pyridin-3-yl-2,3,4,5-tetrahydro-pyrazin-2-yl)-4-fluoro-phenyl]-amide hydrochloride]

- IC50 [1]: 130 nM
- IC50 (human BACE-1): 63 nM
Structure (SMILES): CCN1CC(C)(c2cc(NC(=O)c3ccc(C#N)cn3)ccc2F)N=C(N)C1=O (centres unmarked) [Example 14, 5-Cyano-pyridine-2-carboxylic acid [3-(6-amino-4-ethyl-2-methyl-5-oxo-2,3,4,5-tetrahydro-pyrazin-2-yl)-4-fluoro-phenyl]-amide hydrochloride]

- IC50 [1]: 37 nM
- IC50 (human BACE-1): 33 nM
Structure (SMILES): CC(C)N1CC(C)(c2cc(NC(=O)c3ccc(Br)cn3)ccc2F)N=C(N)C1=O (centres unmarked) [Example 9, 5-Bromo-pyridine-2-carboxylic acid [3-(6-amino-4-isopropyl-2-methyl-5-oxo-2,3,4,5-tetrahydro-pyrazin-2-yl)-4-fluoro-phenyl]-amide hydrochloride]

- IC50 [1]: 40 nM
- IC50 (human BACE-1): 20 nM
Structure (SMILES): COCCN1CC(C)(c2cc(NC(=O)c3ccc(Br)cn3)ccc2F)N=C(N)C1=O (centres unmarked) [Example 11, 5-Bromo-pyridine-2-carboxylic acid {3-[6-amino-4-(2-methoxy-ethyl)-2-methyl-5-oxo-2,3,4,5-tetrahydro-pyrazin-2-yl]-4-fluoro-phenyl}-amide hydrochloride]

- IC50 [1]: 59 nM
- IC50 (human BACE-1): 51 nM
Structure (SMILES): CCN1CC(C)(c2cc(NC(=O)c3ccc(Br)cn3)ccc2F)N=C(N)C1=O (centres unmarked) [Example 6, 5-Bromo-pyridine-2-carboxylic acid [3-(6-amino-4-ethyl-2-methyl-5-oxo-2,3,4,5-tetrahydro-pyrazin-2-yl)-4-fluoro-phenyl]-amide hydrochloride]

- IC50 [1]: 3200 nM
- IC50 (human BACE-1): 4100 nM
Structure (SMILES): CN1CC(N)=NC(C)(c2cc(NC(=O)c3ccc(Br)cn3)ccc2F)C1=O (centres unmarked) [Example 1, 5-Bromo-pyridine-2-carboxylic acid [3-(6-amino-2,4-dimethyl-3-oxo-2,3,4,5-tetrahydro-pyrazin-2-yl)-4-fluoro-phenyl]-amide]

- IC50 [1]: 260 nM
- IC50 (human BACE-1): 400 nM
Structure (SMILES): CN1CC(N)=NC(C)(c2cccc(NC(=O)c3ccc(Br)cn3)c2)C1=O (centres unmarked) [Example 3, 5-Bromo-pyridine-2-carboxylic acid [3-(6-amino-2,4-dimethyl-3-oxo-2,3,4,5-tetrahydro-pyrazin-2-yl)-phenyl]-amide]

- IC50 [1]: 15 nM
- IC50 (human BACE-1): 22 nM
Structure (SMILES): COC(=O)N1CC(N)=NC(c2cc(NC(=O)c3ccc(Br)cn3)ccc2F)(C(F)F)C1 (centres unmarked) [Example 19, 5-Amino-3-{5-[(5-bromo-pyridine-2-carbonyl)-amino]-2-fluoro-phenyl}-3-difluoromethyl-3,6-dihydro-2H-pyrazine-1-carboxylic acid methyl ester]

- IC50 [1]: 84 nM
- IC50 (human BACE-1): 20 nM
Structure (SMILES): Cn1cc(N2CC(C)(c3cc(NC(=O)c4ccc(Br)cn4)ccc3F)N=C(N)C2=O)cn1 (centres unmarked) [Example 12, 5-Bromo-pyridine-2-carboxylic acid {3-[6-amino-2-methyl-4-(1-methyl-1H-pyrazol-4-yl)-5-oxo-2,3,4,5-tetrahydro-pyrazin-2-yl]-4-fluoro-phenyl}-amide hydrochloride]
